Test results from US20080096974A2, “Polyamine-Metal Chelator Conjugates” (University of Florida Research Foundation, Inc., priority 2003, published 2008).
Structures can show the parent of a compound that is named as a salt. Where two headings read alike, the source gives them in different places. Each block holds one compound with its values, some of them ahead of it.

Columns and labels:
[1] = test system: Murine L1210 leukemia cells; assay: L1210 cell growth inhibition (IC50); format: cell-based
Description: Murine L1210 leukemia cells were maintained in logarithmic growth as a suspension culture in RPMI-1640 medium (Gibco, Grand Island, N.Y.) containing 10% fetal bovine serum (Gibco), 2% HEPES-MOPS buffer, 1 mM L-glutamine (Gibco), and 1 mM aminoguanidine at 37° C. in a water-jacketed 5% CO2 incubator.
Cells were grown in 25 cm^2 tissue culture flasks in a total volume of 10 mL. Cultures were treated during logarithmic growth (0.5−1.0×10^5 cells/mL) with the compounds of interest, reseeded, and incubated as described in Bergeron, R. J., Müller, R., Bussenius, J., McManis, J. S., Merriman, R. L., Smith, R. E., Yao, H., Weimar, W. R., “Synthesis and Evaluation of Hydroxylated Polyamine Analogues as Antiproliferatives,” J. Med. Chem 43: 224-235 (2000). Cell counting and calculation of percent of control growth were also carried out as described in Bergeron, et al. The IC50 is defined as the concentration of compound necessary to reduce cell growth to 50% of control growth after defined intervals of exposure.

[2] = test system: polyamine pools in L1210 cells; assay: Effect on native polyamine pools in L1210 cells (HPLC); format: cell-based, murine; conditions: for activity at 0.2 µM: L1210
Description: At the end of the treatment period, cell suspensions were sampled, washed three times in ice-cold, incomplete medium, and pelleted for extraction using 0.6 N perchloric acid, then freeze-fractured in liquid nitrogen/hot water three times. Each supernatant was frozen at −20° C. until analysis of polyamine content by HPLC. […] The buffer consisted of potassium phosphate (10 mM) and EDTA (2 mM), pH 2.9.

[3] = test system: Ornithine decarboxylase (ODC); assay: ODC activity in treated L1210 cells; format: cell-based, murine
Description: (§1) Ornithine decarboxylase (ODC) and Adenosylmethionine decarboxylase (AdoMet DC) activities were determined according to the procedures of Seely, J. E., Pegg, A. E., “Ornithine Decarboxylase (Mouse Kidney),” Methods Enzymol. 94: 158-161 (1983) and Pegg, A. E., Pösö, H., “S-Adenosylmethionine Decarboxylase (Rat Liver),” Methods Enzymol. 94: 234-239 (1983), respectively, on the basis of quantitation of ^14CO2 released from [^14C]carboxyl-labeled L-ornithine or S-adenosyl-L-methionine. Included in each assay were untreated L210 cells as negative controls as well as cells treated with DEHSPM, a drug having a known reproducible effect on each enzyme, as positive controls.

[4] = test system: Adenosylmethionine decarboxylase (AdoMet DC); assay: AdoMetDC activity in treated L1210 cells; format: cell-based, murine
Description: as §1

[5] = test system: Spermidine/spermine N^1-acetyl transferase (SSAT); assay: SSAT activity in treated L1210 cells; format: cell-based, murine
Excerpt: Spermidine/spermine N^1-acetyl transferase (SSAT) activity was based on quantitation of [^14C]-N^1-acetylspermidine formed by acetylation of SPD with [^14C]-acetyl coenzyme A according to the method of Libby, P. R., Bergeron, R. J., Porter, C. W., “Structure-Function Correlations of Polyamine Analog-Induced Increases in Spermidine/Spermine Acetyltransferase Activity,” Biochem. Pharmacol. 38: 1435-1442 (1989). Cells treated with DENSPM were positive controls.

[6] = test system: chelator-promoted iron excretion; assay: Iron clearance in the bile duct-cannulated rat; format: in vivo; conditions: for iron-clearing efficiency: bile duct-cannulated rat
Description: In this model, chelator-promoted iron excretion is measured in both the bile and the urine. Furthermore, because the method allows for collection of multiple bile samples, the kinetics of iron excretion can be determined. In each instance, the drugs were given subcutaneously. L1 and its SPM conjugate (4 and 5) were administered at a dose of 450 μmol/kg and (S)-4′-(HO)-DADFT (8) and its NSPD conjugates (9 and 10) were administered at a dose of 300 μmol/kg, i.e., all at equivalent iron-binding capacity.

[7] = test system: L1210 leukemia cells; assay: Intracellular concentration / accumulation of analogue in L1210 cells (HPLC); conditions: for intracellular concentration over extracellular treatment concentration: 0.2 μM extracellular
Description: At the end of the treatment period, cell suspensions were sampled, washed three times in ice-cold, incomplete medium, and pelleted for extraction using 0.6 N perchloric acid, then freeze-fractured in liquid nitrogen/hot water three times.
During logarithmic growth, cells were treated with the compounds. At the end of the treatment period, cell suspensions were sampled, washed three times in ice-cold, incomplete medium, and pelleted for extraction using 0.6 N perchloric acid, then freeze-fractured in liquid nitrogen/hot water three times. Each supernatant was frozen at −20° C. until analysis of analogue content by HPLC,
Analytical separation was performed on a Waters Symmetry C18 column (250 mm×4.6 mm, 5 μm) with a guard column using a Rainin Instrument Company HPLC system. The buffer employed was sodium octanesulfonate (2.5 mM) in potassium phosphate (25 mM), pH 3.0. Mobile phase A consisted of 5% CH3CN, 95% buffer; mobile phase B consisted of 60% CH3CN, 40% buffer. The solvent gradient program employed a linear gradient that increased from 20% mobile phase B to 40% mobile phase B over 40 min and a 5-min ramp to 100% B over 5 min. Post-column derivatization used a boric acid buffer system (H3BO3, 3.1% w/v; KOH, 2.6% w/v; 2-mercaptoethanol, 0.6% v/v) that contained o-phthaldialdehyde (10 mL of a 4% w/v solution in CH3OH per L of buffer). The flow rate was 0.4 mL/min, isocratic; UV detection (λex, 340 nm; λem, 445 nm) was utilized.
Analytical separation was performed on a reversed-phase Supelco Discovery RP Amide C16 column (150×4.6 mm, 5 μm) on the system described above, and UV detection was at 300 nm. The mobile phases were pumped at a flow rate of 1.5 mL/min. The buffer and mobile phases A and B were the same as described above. The solvent gradient program employed an initial 10-min isocratic portion with 5% mobile phase B (95% A), followed by a linear gradient increase to 80% mobile phase B at 35 min, a 5-min ramp to 100% B held for 10 min, and ramping back to 5% mobile phase B for 8 min (58-65 min total).
In both cases, the concentrations were calculated from the peak area fitted to calibration curves by nonweighted least squares linear regression with Rainin Dynamax HPLC Method Manager software (Rainin Instrument Co.).

[8] = test system: Murine L1210 leukemia cells; conditions: cited from earlier work
[9] = target: polyamine transporter; conditions: L1210 cell suspensions; read-out: Ki, competition for the polyamine transport apparatus (historical numbers); cited from earlier work
[10] = test system: polyamine transporter; assay: Competition with [3H]SPD for uptake into L1210 cells (polyamine transporter, Ki); format: cell-based, murine; conditions: for Ki: L1210 cell suspensions, read-out: Ki, competition with [3H]SPD for the polyamine transport apparatus
Excerpt: The compounds of interest were studied for their ability to compete with [^3H]SPD for uptake into L1210 leukemia cell suspensions in vitro as described in Bergeron, R. J., Hawthorne, T. R., Vinson, J. R. T., Beck, D. L., Jr., Ingeno, M. J., “Role of the Methylene Backbone in the Antiproliferative Activity of Polyamine Analogues on L1210 Cells,” Cancer Res. 49: 2959-2964 (1989); Bergeron, R. J., McManis, J. S., Liu, C. Z., Feng, Y., Weimar, W. R., Luchetta, G. R., Wu, Q., Ortiz-Ocasio, J., Vinson, J. R. T., Kramer, D., Porter, C., “Antiproliferative Properties of Polyamine Analogues: A Structure-Activity Study,” J. Med. Chem. 37: 3464-3476 (1994); and Bergeron, R. J., Weimar, W. R., Wu, Q., Feng, Y., McManis, J. S., “Polyamine Analogue Regulation of NMDA MK-801 Binding: A Structure-Activity Study,” J. Med. Chem. 39: 5257-5266 (1996). Briefly, cell suspensions were incubated in 1 mL of culture medium containing radiolabeled SPD alone or radiolabeled SPD in the presence of graduated concentrations of a chelator or derivative. At the end of the incubation period, the tubes were centrifuged; the pellet was washed, digested, and neutralized prior to scintillation counting. Lineweaver-Burk plots indicated a simple competitive inhibition with respect to SPD.
The molecules of interest were studied for their ability to compete with [^3H]SPD for uptake into L1210 leukemia cell suspensions in vitro. Briefly, cell suspensions were incubated in 1 mL of culture medium containing radiolabeled SPD alone or radiolabeled SPD in the presence of graduated concentrations of chelator or conjugate. At the end of the incubation period, the tubes were centrifuged; the pellet was washed, digested, and neutralized prior to scintillation counting. Lineweaver-Burk plots indicated simple competitive inhibition with respect to SPD.

[11] = test system: L1210 leukemia cells; conditions: extracellular 30 μM; cited from earlier work
[12] = Mus musculus, 48 h exposure, read-out: IC50, 48 h
[13] = Mus musculus, 96 h exposure, read-out: IC50, 96 h
[14] = rat, 450 μmol/kg subcutaneously
[15] = L1210 cells, treatment concentration 100 μM
[16] = rat, 300 μmol/kg subcutaneously

Structure (SMILES): Cc1c(O)c(=O)ccn1CCCNCCCCNCCCN [Compound 3, 1-(12-Amino-4,9-diazadodecyl)-2-methyl-3-hydroxy-4(1H)-pyridinone Tetrahydrochloride]
IC50 [1, 12]: 0.2 µM | IC50 [1, 13]: 0.2 µM | activity at 0.2 µM ([2]; Mus musculus, read-out: putrescine, percent of control): 33% | activity at 0.2 µM ([2]; Mus musculus, read-out: spermidine, percent of control): 64% | activity at 0.2 µM ([2]; Mus musculus, read-out: spermine, percent of control): 139% | ODC activity, % of control [3]: 20±4 % of control | AdoMetDC activity, % of control [4]: 77±11 % of control | SSAT activity, % of control [5]: 275±6 % of control | iron-clearing efficiency ([6]; 450 μmol/kg subcutaneously): 1.8±0.9% | share of excreted iron in the bile [6, 14]: 53% | share of excreted iron in the urine [6, 14]: 47% | intracellular concentration relative to that attained by parent ligand L1 [7]: several hundred times higher | intracellular concentration over extracellular treatment concentration [7]: more than 1900 fold | intracellular concentration over extracellular treatment concentration ([7]; listed as 1-(12-amino-4,9-diazadodecyl)-2-methyl-3-hydroxy-4-(1H)-pyridinone): 1900 fold | intracellular level ([7]; extracellular 0.2 μM): 390 µM | intracellular concentration (analogue accumulation) ([7]; treatment concentration 0.2 μM): 0.39 mM

intracellular concentration (analogue accumulation) ([7]; treatment concentration 100 μM): 3.52 mM
Structure (SMILES): CCCNCCCCNCCCN [MPSPD(N^8), N^8-propylspermidine]
putrescine, percent of control [2, 15]: lowered | spermidine, percent of control [2, 15]: lowered | activity at 100 µM ([2]; Mus musculus, L1210 cells, treatment concentration 100 μM, read-out: spermine, percent of control): 103% | AdoMetDC activity, % of control [4]: 64 % of control | SSAT activity, % of control [5]: 500 % of control | IC50 ([8]; 48 h exposure, read-out: IC50, 48 h (historical numbers)): > 100 µM | IC50 ([8]; 96 h exposure, read-out: IC50, 96 h (historical numbers)): 55 µM | Ki [9]: 8.5 µM

Structure (SMILES): COC(=O)c1ccc(C(=O)NCCCNCCCCN)cc1 [Compound 6, N^1-terephthaloylspermidine methyl ester]
Ki [10]: 3.1 µM

IC50 ([1]; 48 h exposure, read-out: IC50, 48 h): 30 µM | IC50 ([1]; 96 h exposure, read-out: IC50, 96 h): 0.2 µM
Structure (SMILES): CCNCCCNCCCCNCCCNCC [DESPM]
intracellular level (previous studies) [11]: 400 µM

IC50 [1, 12]: 19 µM | IC50 [1, 13]: 20 µM | intracellular level ([7]; extracellular 100 μM): ≤ 50 µM
Structure (SMILES): C[C@]1(C(=O)O)CSC(c2ccc(O)cc2O)=N1 [Compound 8, 2-(2,4-dihydroxyphenyl)-4-(S)-methylthiazoline-4-carboxylic acid]
iron-clearing efficiency ([6]; 300 μmol/kg subcutaneously): 1.1±0.6%

IC50 [1, 12]: 1.5 µM | IC50 [1, 13]: 1.5 µM | intracellular level ([7]; extracellular 100 μM): 947 ± 110 µM
Structure (SMILES): CCOC(=O)[C@@]1(C)CSC(c2ccc(OCCCCNCCCNCCCN)cc2O)=N1 [Compound 9]
Ki [10]: 5.7 µM | iron-clearing efficiency ([6]; 300 μmol/kg subcutaneously): 13.6±3.3% | biliary ferrokinetics (in words) [6, 16]: protracted biliary iron clearance

IC50 [1, 12]: 40 µM | IC50 [1, 13]: 40 µM | drug species found in tissues of dosed animals ([6]; rat, subcutaneous): contained largely free acid | intracellular level ([7]; extracellular 100 μM): about 70 μM
Structure (SMILES): C[C@]1(C(=O)O)CSC(c2ccc(OCCCCNCCCNCCCN)cc2O)=N1.Cl.Cl.Cl [Compound 10, (S)-4,5-dihydro-2-[2-hydroxy-4-(12-amino-5,9-diazadodecyloxy)phenyl]-4-methyl-4-thiazolecarboxylic acid trihydrochloride]
Ki [10]: 73 µM | biliary ferrokinetics (in words) [6, 16]: protracted biliary iron clearance

IC50 [1, 12]: 7 µM | IC50 [1, 13]: 6 µM
Structure (SMILES): CC(=O)N(O)CCCCCNC(=O)CCC(=O)N(O)CCCCCNC(=O)CCC(=O)N(O)CCCCCN [DFO]

intracellular concentration (analogue accumulation) ([7]; treatment concentration 100 μM): 1.24 mM
Structure (SMILES): CCNCCCNCCCCNCCCN [MESPM, N^1-ethylspermine]

IC50 [1, 12]: 46 µM | IC50 [1, 13]: 55 µM | intracellular level ([7]; extracellular 50 μM): 1 µM
Structure (SMILES): Cc1c(O)c(=O)ccn1C [Compound L1, 1,2-Dimethyl-3-hydroxypyridin-4-one]
putrescine, percent of control ([2]; L1210 cells, treatment 50 μM): remained close to control levels | spermidine, percent of control ([2]; L1210 cells, treatment 50 μM): remained close to control levels | activity at 50 µM ([2]; Mus musculus, L1210 cells, treatment 50 μM, read-out: spermine, percent of control): 127% | ODC activity, % of control [3]: 114±5 % of control | AdoMetDC activity, % of control [4]: 120±4 % of control | SSAT activity, % of control [5]: 108±58 % of control | iron-clearing efficiency ([6]; 450 μmol/kg subcutaneously): 2.2±0.9% | share of excreted iron in the bile [6, 14]: 74% | share of excreted iron in the urine [6, 14]: 26%

IC50 ([1]; exposure time not given, read-out: IC50): > 100 µM | intracellular level ([7]; extracellular 100 μM): < 20 µM
Structure (SMILES): FC(F)(F)CNCCCNCCCCNCCCNCC(F)(F)F [FDESPM]
competition for / uptake by the polyamine transporter (in words) ([10]; L1210 cells): poor Ki

intracellular level ([7]; extracellular 100 μM): < 70 µM
Structure (SMILES): NCCCCNCCCNC(=O)c1ccc(C(=O)O)cc1 [Compound 7, N^1-terephthaloylspermidine]
Ki [10]: 27 µM | fold increase of Ki of the free acid over the corresponding ester ([10]; L1210 cells): 9 fold

Structure (SMILES): Cc1c(O)c(=O)ccn1CCCNCCCCNCCCN (as salt: hydrochloride) [Compound 3, 1-(12-Amino-4,9-diazadodecyl)-2-methyl-3-hydroxy-4(1H)-pyridinone Tetrahydrochloride]
melting point: 216 to 218 °C

IC50 [1, 12]: > 100 µM | IC50 [1, 13]: > 100 µM | intracellular concentration (analogue accumulation) ([7]; treatment concentration 100 μM): 1.62 mM
Structure (SMILES): CC(=O)NCCCNCCCCNCCCN [AcSPM, N^1-Acetylspermine]
Ki [10]: 10 µM | putrescine, percent of control [2, 15]: substantial effect | spermidine, percent of control [2, 15]: slight decrease | spermine, percent of control [2, 15]: increased | ODC activity, % of control [3]: 25±11 % of control | AdoMetDC activity, % of control [4]: 86±11 % of control | SSAT activity, % of control [5]: 180±11 % of control
